Reference: US20240101572A1, “DIHYDROOXADIAZINONE COMPOUND AND PHARMACEUTICAL USE THEREOF” (Japan Tobacco Inc., priority 2022, published 2024)
Read-outs that look alike come from different tables or passages of the source.

Legend:
full-length human PLD2 = full-length human PLD2 (Homo sapiens (Human), UniProt O14939); experiment: Evaluation of human PLD2 enzyme inhibitory activity (Amplex Red / choline oxidase fluorescence); format: biochemical
In short: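 Enzyme was N-terminal FLAG-tagged full-length human PLD2 (1-933), expressed in Expi293F cells and anti-FLAG purified. Compound (5% DMSO final) was incubated with enzyme (6 nmol/L solution) and 1,2-diheptanoyl-PC (6 mmol/L solution) in HEPES pH 7.5, KCl, EGTA, MgCl2, NP-40, BSA buffer for 60 min at room temperature. Choline was detected with Amplex Red/choline oxidase/HRP.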

full-length human PLD1 = full-length human PLD1 (Homo sapiens (Human), UniProt Q13393); experiment: Evaluation of human PLD1 enzyme inhibitory activity (Amplex Red / choline oxidase fluorescence); format: biochemical
In short: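 N-terminally FLAG-tagged full-length human PLD1 (1-1036), expressed in Expi293F and FLAG-purified, incubated with compound (5% DMSO final) and 1,2-diheptanoyl-sn-glycero-3-phosphocholine for 60 min at room temperature in HEPES pH 7.5 buffer. Released choline detected by Amplex Red/choline oxidase/HRP fluorescence.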

[1] = full-length human PLD2 enzyme, read-out: PLD2 IC50
[2] = full-length human PLD1 enzyme, read-out: PLD1 IC50

Sequence of full-length human PLD1 (Q13393 other isoform, or with tags, fused parts or gaps): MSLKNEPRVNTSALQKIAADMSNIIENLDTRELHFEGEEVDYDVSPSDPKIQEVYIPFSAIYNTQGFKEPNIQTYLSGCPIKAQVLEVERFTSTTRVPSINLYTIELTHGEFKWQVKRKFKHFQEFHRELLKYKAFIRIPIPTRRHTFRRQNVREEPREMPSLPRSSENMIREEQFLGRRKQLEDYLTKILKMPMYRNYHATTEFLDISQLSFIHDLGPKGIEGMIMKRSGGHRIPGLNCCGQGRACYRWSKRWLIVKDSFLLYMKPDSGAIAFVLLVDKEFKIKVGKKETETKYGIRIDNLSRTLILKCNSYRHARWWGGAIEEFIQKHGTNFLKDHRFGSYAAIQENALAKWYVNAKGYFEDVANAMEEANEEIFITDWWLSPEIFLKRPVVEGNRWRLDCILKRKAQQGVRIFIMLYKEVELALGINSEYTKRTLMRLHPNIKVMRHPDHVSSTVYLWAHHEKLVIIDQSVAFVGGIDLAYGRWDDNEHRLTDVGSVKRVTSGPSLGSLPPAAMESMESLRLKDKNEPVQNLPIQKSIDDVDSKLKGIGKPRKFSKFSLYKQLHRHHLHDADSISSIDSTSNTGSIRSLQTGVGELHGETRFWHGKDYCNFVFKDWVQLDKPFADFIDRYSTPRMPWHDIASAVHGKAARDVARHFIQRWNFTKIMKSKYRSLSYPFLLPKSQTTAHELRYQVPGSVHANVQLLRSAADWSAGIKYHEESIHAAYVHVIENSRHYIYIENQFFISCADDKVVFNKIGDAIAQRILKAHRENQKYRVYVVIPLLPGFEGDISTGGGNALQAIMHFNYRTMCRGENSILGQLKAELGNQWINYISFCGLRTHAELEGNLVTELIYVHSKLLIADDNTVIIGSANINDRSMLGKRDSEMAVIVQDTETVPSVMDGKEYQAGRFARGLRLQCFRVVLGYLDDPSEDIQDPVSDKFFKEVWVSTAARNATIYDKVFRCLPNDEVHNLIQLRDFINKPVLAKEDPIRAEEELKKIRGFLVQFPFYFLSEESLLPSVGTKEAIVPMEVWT
Sequence of full-length human PLD2 (O14939 whole entry): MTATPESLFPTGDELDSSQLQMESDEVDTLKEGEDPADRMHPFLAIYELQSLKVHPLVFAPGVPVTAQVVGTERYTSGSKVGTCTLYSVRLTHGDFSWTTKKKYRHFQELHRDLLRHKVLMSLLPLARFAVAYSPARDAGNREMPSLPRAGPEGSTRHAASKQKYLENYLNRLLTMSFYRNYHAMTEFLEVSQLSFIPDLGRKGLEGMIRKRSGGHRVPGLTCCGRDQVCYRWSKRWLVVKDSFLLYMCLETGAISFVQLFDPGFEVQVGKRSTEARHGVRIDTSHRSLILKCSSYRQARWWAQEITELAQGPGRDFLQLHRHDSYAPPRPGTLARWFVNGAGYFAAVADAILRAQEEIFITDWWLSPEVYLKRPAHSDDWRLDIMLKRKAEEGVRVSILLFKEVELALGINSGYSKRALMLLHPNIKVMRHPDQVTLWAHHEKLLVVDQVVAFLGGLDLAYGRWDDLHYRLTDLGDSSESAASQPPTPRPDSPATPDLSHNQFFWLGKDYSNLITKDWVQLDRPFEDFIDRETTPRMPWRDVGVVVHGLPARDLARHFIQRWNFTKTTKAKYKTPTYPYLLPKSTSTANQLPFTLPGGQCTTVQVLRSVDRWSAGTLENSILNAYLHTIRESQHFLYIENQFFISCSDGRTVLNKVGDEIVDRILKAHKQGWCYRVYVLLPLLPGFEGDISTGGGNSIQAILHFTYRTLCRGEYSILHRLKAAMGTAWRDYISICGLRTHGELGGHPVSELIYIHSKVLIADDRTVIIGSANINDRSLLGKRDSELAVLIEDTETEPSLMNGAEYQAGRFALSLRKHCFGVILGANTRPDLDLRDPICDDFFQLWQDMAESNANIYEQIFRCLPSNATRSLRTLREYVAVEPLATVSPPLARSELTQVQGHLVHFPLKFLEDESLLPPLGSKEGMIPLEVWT

Structure (SMILES)	IC50 (full-length human PLD2; [1])	IC50 (full-length human PLD1; [2])	also measured
CNC(=O)C(=O)N[C@@H](C)C[C@H]1CC[C@]2(CC1)OC(=O)NN=C2c1cccc(C#N)c1Br [Example 315]	24 nM	25 nM	
Cc1cc(C(=O)N[C@@H](C)CN2CCC3(CC2)OC(=O)NN=C3c2cc(C#N)ccc2Cl)[nH]n1 [Example 2-007]	< 10 nM	28 nM	
C[C@@H](C[C@H]1CC[C@]2(CC1)OC(=O)NN=C2c1ccc(C(C)(C)O)cc1Br)NC(=O)c1cc(Cl)no1 [Example 97]	< 10 nM	< 10 nM	
CNC(=O)C(=O)N[C@@H](C)C[C@]1(C#N)CC[C@@]2(CC1)OC(=O)NN=C2c1cc(OC(F)(F)F)ccc1Br [Example 2-080]	< 10 nM	< 10 nM	
CNC(=O)C(=O)N[C@@H](C)C[C@H]1CC[C@]2(CC1)OC(=O)NN=C2c1ccc(S(C)(=O)=O)cc1 [Example 10]	106 nM	92 nM	
C[C@@H](CN1CCC2(CC1)OC(=O)NN=C2c1cc(C#N)ccc1Br)NC(=O)C1COCCO1 (mixture of isomers) [Example 2-049]	1440 nM	1740 nM	
[2H]C([2H])([2H])NC(=O)C(=O)N[C@@H](C)C[C@]1(C#N)CC[C@@]2(CC1)OC(=O)NN=C2c1cc(OC(F)F)ccc1Br [Example 2-113]			IC50 (full-length human PLD2; column 2 of continuation tables 2-12 to 2-14, read-out: human PLD2 enzyme inhibitory activity IC50): < 10 nM; IC50 (full-length human PLD1; column 1 of continuation tables 2-12 to 2-14, read-out: human PLD1 enzyme inhibitory activity IC50): 14 nM
C[C@@H](CN1CCC2(CC1)OC(=O)NN=C2c1ccc(F)cc1)NC(=O)c1cc2cc(F)ccc2[nH]1 [Example 1]	< 10 nM	33 nM	
Cc1cc(C(=O)N[C@@H](C)C[C@H]2CC[C@]3(CC2)OC(=O)NN=C3c2cc(OCC(F)(F)F)ccc2Br)[nH]n1 [Example 298]	< 10 nM	15 nM	
Cc1cc(Cl)c(C2=NNC(=O)O[C@]23CC[C@@H](C[C@H](C)NC(=O)N2CCn4nccc4C2)CC3)cn1 [Example 276]	< 10 nM	21 nM	
CNC(=O)C(=O)N[C@@H](C)C[C@H]1CC[C@]2(CC1)OC(=O)NN=C2c1cnccc1C [Example 112]	20 nM	31 nM	
C[C@@H](CN1CCC2(CC1)OC(=O)NN=C2c1ccc(F)cc1Br)NC(=O)NC1CC1 [Example 189]	140 nM	130 nM	
CNC(=O)C(=O)N[C@@H](C)C[C@H]1CC[C@]2(CC1)OC(=O)NN=C2c1cnc(C(N)=O)cc1C [Example 187]	455 nM	222 nM	
CNC(=O)C(=O)N[C@@H](C)C[C@H]1CC[C@]2(CC1)OC(=O)NN=C2c1cnc(C(C)(C)O)cc1C [Example 185]	64 nM	68 nM	
CSc1ccc(C2=NNC(=O)OC23CCN(C[C@H](C)NC(=O)c2cc4cc(F)ccc4o2)CC3)c(Cl)c1 [Example 115]	< 10 nM	15 nM	
C[C@@H](C[C@H]1CC[C@]2(CC1)OC(=O)NN=C2c1cccc(C#N)c1Br)NC(=O)c1cnn(C)c1 [Example 318]	41 nM	37 nM	
CNC(=O)C(=O)N[C@@H](C)C[C@H]1CC[C@]2(CC1)OC(=O)NN=C2c1cnc(N2CC(C)C2)cc1C [Example 182]	< 10 nM	19 nM	
CNC(=O)C(=O)NC[C@@H](C)N1CCC2(CC1)OC(=O)NN=C2c1ccc(C#N)cc1Br [Example 330]	26 nM	3150 nM	
C[C@@H](CN1CCC2(CC1)OC(=O)NN=C2c1ccc(F)cc1Cl)NC(=O)c1cn(C)nn1 [Example 94]	60 nM	68 nM	
CNC(=O)C(=O)N[C@@H](C)C[C@H]1CC[C@]2(CC1)OC(=O)NN=C2c1ccc(C#N)cc1C [Example 152]	13 nM	23 nM	
C[C@@H](CN1CCC2(CC1)OC(=O)NN=C2c1cc(C#N)ccc1Br)NC(=O)c1cn(C)cn1 [Example 2-054]	< 10 nM	37 nM	
CC(=O)Nc1cccc2[nH]c(C(=O)N[C@@H](C)C[C@H]3CC[C@]4(CC3)OC(=O)NN=C4c3ccc(F)cc3)cc12 [Example 142]	< 10 nM	22 nM	
[2H]C([2H])([2H])NC(=O)C(=O)N[C@@H](C)CN1CCC2(CC1)OC(=O)NN=C2c1cc(C#N)ccc1Br [Example 2-001]	< 10 nM	41 nM	

Structure (SMILES)	IC50 (full-length human PLD2; [1])	IC50 (full-length human PLD1; [2])	also measured
C[C@@H](CN1CCC2(CC1)OC(=O)N(C(=O)NC1CC1)N=C2c1ccc(F)cc1Br)NC(=O)NC1CC1 [Example 190]	776 nM	642 nM	
C[C@@H](C[C@H]1CC[C@]2(CC1)OC(=O)NN=C2c1ccc(F)cc1Br)NC(=O)/C=C/CN(C)C [Example 279]	44 nM	86 nM	
Cc1cc(N2CCOCC2)ccc1C1=NNC(=O)O[C@]12CC[C@@H](C[C@H](C)NC(=O)C(=O)NC1CC1)CC2 [Example 218]	13 nM	23 nM	
CNC(=O)C(=O)N[C@@H](C)C[C@]1(C#N)CC[C@@]2(CC1)OC(=O)NN=C2c1cc(C(F)(F)F)ccc1Br [Example 2-066]	< 10 nM	15 nM	
C[C@@H](C[C@]1(C#N)CC[C@@]2(CC1)OC(=O)NN=C2c1cc(OCC(F)F)ncc1Br)NC(=O)C(=O)NC1CC1 [Example 2-101]			inhibition at 10 µM (full-length human PLD2; read-out: human PLD2 % inhibition at 10 μM): 28%; inhibition at 10 µM (full-length human PLD2; read-out: inhibition rate of PLD2 at 10 μM compound): 28%; inhibition at 10 µM (full-length human PLD1; read-out: human PLD1 % inhibition at 10 μM): 13%; inhibition at 10 µM (full-length human PLD1; read-out: inhibition rate of PLD1 at 10 μM compound): 13%
CNC(=O)C(=O)N[C@@H](C)C[C@H]1CC[C@]2(CC1)OC(=O)NN=C2c1cnc(N2CCOCC2)cc1C [Example 164]	< 10 nM	38 nM	
COC(=O)N[C@@H](C)C[C@H]1CC[C@]2(CC1)OC(=O)NN=C2c1ccc(F)cc1C [Example 156]	412 nM	236 nM	
CNC(=O)C(=O)N[C@@H](C)CC1CCC2(CC1)OC(=O)NN=C2c1ccncc1Br (mixture of isomers) [Example 120]	11 nM	12 nM	
CNC(=O)C(=O)N[C@@H](C)C[C@H]1CC[C@]2(CC1)OC(=O)NN=C2c1cccc2c1OCC2 [Example 106]	48 nM	26 nM	
CNC(=O)C(=O)N[C@@H](C)C[C@H]1CC[C@]2(CC1)OC(=O)NN=C2c1cnc(N2CC(F)(F)C2)cc1C [Example 228]	< 10 nM	28 nM	
C[C@@H](C[C@H]1CC[C@]2(CC1)OC(=O)NN=C2c1ccc(F)cc1Br)NC(=O)C1CC1c1ccccc1 (single isomer, unassigned) [Example 38]	88 nM	35 nM	
C[C@H](O)C(=O)N[C@@H](C)C[C@H]1CC[C@]2(CC1)OC(=O)NN=C2c1ccc(F)cc1Br [Example 29]	1720 nM	999 nM	
CNC(=O)C(=O)N[C@@H](C)C[C@H]1CC[C@]2(CC1)OC(=O)NN=C2c1ncccc1C [Example 147]	32 nM	32 nM	
COc1cc(C)c(C2=NNC(=O)O[C@]23CC[C@@H](C[C@H](C)NC(=O)NCc2ccccc2F)CC3)cn1 [Example 234]	474 nM	247 nM	
C[C@@H](C[C@H]1CC[C@]2(CC1)OC(=O)NN=C2c1cc(C#N)ccc1Br)NC(=O)c1ncon1 [Example 293]	325 nM	127 nM	
Cc1cc(C(=O)N[C@@H](C)[C@@H](C)N2CCC3(CC2)OC(=O)NN=C3c2ccc(F)cc2Br)[nH]n1 [Example 290]	46 nM	122 nM	
C[C@@H](C[C@H]1CC[C@]2(CC1)OC(=O)NN=C2c1ccc(F)cc1Br)NC(=O)C1(O)CC1 [Example 36]	137 nM	221 nM	
CNC(=O)C(=O)N[C@@H](C)CC1CCC2(CC1)OC(=O)NN=C2c1ccncc1C (mixture of isomers) [Example 125]	57 nM	40 nM	
CNC(=O)C(=O)N[C@@H](C)C[C@H]1CC[C@]2(CC1)OC(=O)NN=C2c1cnc(N2CCCCC2)cc1C [Example 166]	< 10 nM	19 nM	
Cc1cc(C(=O)N[C@@H](C)CN2CCC3(CC2)OC(=O)NN=C3c2ccc(F)cc2Br)[nH]n1 [Example 3]	< 10 nM	27 nM	
[2H]C([2H])([C@H](C)NC(=O)c1cnn(C)c1)N1CCC2(CC1)OC(=O)NN=C2c1ccc(F)cc1Br [Example 334]	< 10 nM	26 nM	
CNC(=O)C(=O)N[C@@H](C)C[C@H]1CC[C@]2(CC1)OC(=O)NN=C2c1cnccc1Br [Example 151]	< 10 nM	18 nM	
